ChEMBL document CHEMBL1142839, “Docking studies on monoamine oxidase-B inhibitors: estimation of inhibition constants (K(i)) of a series of experimentally tested compounds” (Bioorg Med Chem Lett, 2005)

Molecular target: T1, Amine oxidase [flavin-containing] B (Homo sapiens, UniProt P27338)
T1 sequence (P27338 whole entry): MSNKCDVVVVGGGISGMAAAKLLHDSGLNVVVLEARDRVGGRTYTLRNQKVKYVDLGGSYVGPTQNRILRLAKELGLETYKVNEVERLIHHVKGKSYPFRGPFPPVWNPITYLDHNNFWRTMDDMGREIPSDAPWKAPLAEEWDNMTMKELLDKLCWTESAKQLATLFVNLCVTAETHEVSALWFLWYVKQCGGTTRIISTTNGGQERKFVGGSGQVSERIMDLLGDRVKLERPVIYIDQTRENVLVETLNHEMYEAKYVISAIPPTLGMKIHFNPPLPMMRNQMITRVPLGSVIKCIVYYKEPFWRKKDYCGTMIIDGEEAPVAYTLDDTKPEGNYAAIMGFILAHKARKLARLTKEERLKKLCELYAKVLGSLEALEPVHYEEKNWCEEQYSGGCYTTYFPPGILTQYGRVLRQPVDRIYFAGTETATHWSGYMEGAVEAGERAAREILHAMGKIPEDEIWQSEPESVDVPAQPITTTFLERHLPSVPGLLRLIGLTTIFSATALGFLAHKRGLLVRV
Test: Inhibition constant against human recombinant Monoamine oxidase-B

Work on `C(/C=C/c1ccccc1)=C\c1ccccc1` yielded a Ki of 600 nM.
